Key:
Assay type in all cases: cell-based
TYK2 [1] = biological target: T1, TYK2 (Homo sapiens, UniProt P29597); experiment: TYK2 degradation MSD assay in human PBMC cells; set-up: endogenous in cells; host or cells: human PBMC; details: 4 to 24 hours incubation, read-out: TYK2 MSD DC50 rating in human PBMC
Method in brief: (§1)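 TYK2 levels in lysed cells, detected via antibody capture and SULFO-TAG electrochemiluminescence, were compared across a nine-point threefold compound dilution (highest 1 to 10 μM) after 4–24 h culture at 37° C under 5% CO2. Four-parameter nonlinear regression of the dose response yielded DC50.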

TYK2 [2] = biological target: T1, TYK2; experiment: TYK2 degradation MSD assay in OCI-LY10 cells; set-up: endogenous in cells; host or cells: EBV-B cells; details: 4 to 24 hours incubation, read-out: TYK2 MSD DC50 rating in OCI-LY10
Method in brief: as §1

TYK2 [3] = biological target: T1, TYK2; experiment: TYK2 degradation MSD assay in EBV-B cells; set-up: endogenous in cells; host or cells: EBV-B cells; details: 4 to 24 hours incubation, read-out: TYK2 MSD DC50 rating in EBV-B
Method in brief: as §1

T1 sequence (P29597 whole entry): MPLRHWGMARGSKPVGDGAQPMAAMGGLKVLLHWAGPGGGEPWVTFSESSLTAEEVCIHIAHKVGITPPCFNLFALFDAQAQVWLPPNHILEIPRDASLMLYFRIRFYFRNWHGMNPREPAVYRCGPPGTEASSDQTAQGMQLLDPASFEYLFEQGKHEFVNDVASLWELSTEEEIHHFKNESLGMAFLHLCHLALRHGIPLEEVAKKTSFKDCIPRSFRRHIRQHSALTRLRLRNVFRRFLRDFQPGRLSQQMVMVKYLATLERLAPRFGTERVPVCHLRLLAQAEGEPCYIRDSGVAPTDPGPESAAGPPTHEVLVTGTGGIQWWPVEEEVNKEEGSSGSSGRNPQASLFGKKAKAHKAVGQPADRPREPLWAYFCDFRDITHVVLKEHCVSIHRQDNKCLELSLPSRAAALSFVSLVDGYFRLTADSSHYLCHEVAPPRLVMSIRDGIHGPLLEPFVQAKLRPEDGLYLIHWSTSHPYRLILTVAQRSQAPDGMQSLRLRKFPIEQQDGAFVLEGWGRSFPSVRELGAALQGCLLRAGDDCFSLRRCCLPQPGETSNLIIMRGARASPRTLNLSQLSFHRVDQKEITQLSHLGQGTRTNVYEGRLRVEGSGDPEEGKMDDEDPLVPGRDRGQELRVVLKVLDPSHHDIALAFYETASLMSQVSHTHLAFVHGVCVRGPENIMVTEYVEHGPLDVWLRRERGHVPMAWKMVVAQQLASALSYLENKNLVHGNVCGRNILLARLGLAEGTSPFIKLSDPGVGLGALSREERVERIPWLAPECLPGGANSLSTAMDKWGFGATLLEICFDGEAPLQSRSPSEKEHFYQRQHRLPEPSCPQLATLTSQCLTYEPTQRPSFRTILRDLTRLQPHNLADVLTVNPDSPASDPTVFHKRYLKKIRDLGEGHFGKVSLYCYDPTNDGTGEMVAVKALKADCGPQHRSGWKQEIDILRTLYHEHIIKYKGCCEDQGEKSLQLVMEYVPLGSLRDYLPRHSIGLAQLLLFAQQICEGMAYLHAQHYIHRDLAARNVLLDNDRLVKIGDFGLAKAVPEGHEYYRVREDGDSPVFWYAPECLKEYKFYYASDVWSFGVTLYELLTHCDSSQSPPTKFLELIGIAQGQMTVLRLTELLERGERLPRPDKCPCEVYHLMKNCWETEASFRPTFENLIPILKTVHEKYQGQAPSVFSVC

For CNc1cc(-c2cnn(C3CCN(C(=O)NCCCCc4ccc5c(c4)n(C)c(=O)n5C4CCC(=O)NC4=O)CC3)c2)nn2c(C(=O)N[C@@H]3C[C@@H]3F)cnc12 (stereo partly drawn) [Example K294], the DC50 (TYK2 [1]) was over 100 nM, the DC50 (TYK2 [2]) was over 100 nM and the DC50 (TYK2 [3]) was over 100 nM.
In the case of CNc1cc(-c2cnn(C3CCN(C(=O)NCCCCc4cccc5c4n(C)c(=O)n5C4CCC(=O)NC4=O)CC3)c2)nn2c(C(=O)N[C@@H]3C[C@@H]3F)cnc12 (stereo partly drawn) [Example K295], the DC50 (TYK2 [1]) is reported as over 100 nM, the DC50 (TYK2 [2]) is reported as over 100 nM and the DC50 (TYK2 [3]) is reported as over 100 nM.
CNc1cc(-c2cnn(C3CCN(C(=O)NCCCCCCCCc4ccc5c(c4)n(C)c(=O)n5C4CCC(=O)NC4=O)CC3)c2)nn2c(C(=O)N[C@@H]3C[C@@H]3F)cnc12 (stereo partly drawn) [Example K296] gave a DC50 (TYK2 [1]) of under 1 nM, a DC50 (TYK2 [2]) of over 100 nM and a DC50 (TYK2 [3]) of over 100 nM.
Compound CNc1cc(-c2ccc(C(=O)NCCCCCCc3ccc4c(c3)n(C)c(=O)n4C3CCC(=O)NC3=O)cc2)nn2c(C(=O)N[C@@H]3C[C@@H]3F)cnc12 (stereo partly drawn) [Example K298] has a DC50 (TYK2 [1]) of over 100 nM, a DC50 (TYK2 [2]) of over 100 nM and a DC50 (TYK2 [3]) of over 100 nM.
Compound CNc1cc(-c2ccc(C(=O)NCCCCc3cccc4c3n(C)c(=O)n4C3CCC(=O)NC3=O)cc2)nn2c(C(=O)N[C@@H]3C[C@@H]3F)cnc12 (stereo partly drawn) [Example K299] has a DC50 (TYK2 [1]) of over 100 nM, a DC50 (TYK2 [2]) of over 100 nM and a DC50 (TYK2 [3]) of over 100 nM.
CNc1cc(-c2ccc(C(=O)NCCCCCCc3cccc4c3n(C)c(=O)n4C3CCC(=O)NC3=O)cc2)nn2c(C(=O)N[C@@H]3C[C@@H]3F)cnc12 (stereo partly drawn) [Example K300] showed a DC50 (TYK2 [1]) of over 100 nM, a DC50 (TYK2 [2]) of over 100 nM and a DC50 (TYK2 [3]) of over 100 nM.
Work on CNc1cc(-c2ccc(C(=O)NCCCCCCCCc3ccc4c(c3)n(C)c(=O)n4C3CCC(=O)NC3=O)cc2)nn2c(C(=O)N[C@@H]3C[C@@H]3F)cnc12 (stereo partly drawn) [Example K301] yielded a DC50 (TYK2 [1]) of over 100 nM, a DC50 (TYK2 [2]) of over 100 nM and a DC50 (TYK2 [3]) of over 100 nM.
CNc1cc(C2CCN(C(=O)CCCCCCCc3ccc4c(c3)n(C)c(=O)n4C3CCC(=O)NC3=O)CC2)nn2c(C(=O)N[C@@H]3C[C@@H]3F)cnc12 (stereo partly drawn) [Example K302] gave a DC50 (TYK2 [1]) of over 100 nM, a DC50 (TYK2 [2]) of over 100 nM and a DC50 (TYK2 [3]) of over 100 nM.
With CNc1cc(-c2ccc(C(=O)NCCCCCCCCc3cccc4c3n(C)c(=O)n4C3CCC(=O)NC3=O)cc2)nn2c(C(=O)N[C@@H]3C[C@@H]3F)cnc12 (stereo partly drawn) [Example K303] the DC50 (TYK2 [1]) was over 100 nM, the DC50 (TYK2 [2]) was over 100 nM and the DC50 (TYK2 [3]) was over 100 nM.
CNc1cc(C2CCCN(C(=O)CCCCCCCc3ccc4c(c3)n(C)c(=O)n4C3CCC(=O)NC3=O)C2)nn2c(C(=O)N[C@@H]3C[C@@H]3F)cnc12 (stereo partly drawn) [Example K304] was tested, and the DC50 (TYK2 [1]) was over 100 nM, the DC50 (TYK2 [2]) was over 100 nM and the DC50 (TYK2 [3]) was over 100 nM.
Work on CNc1cc(-c2cccc(C(=O)NCCCCc3cccc4c3n(C)c(=O)n4C3CCC(=O)NC3=O)c2)nn2c(C(=O)N[C@@H]3C[C@@H]3F)cnc12 (stereo partly drawn) [Example K305] yielded a DC50 (TYK2 [1]) of over 100 nM, a DC50 (TYK2 [2]) of over 100 nM and a DC50 (TYK2 [3]) of over 100 nM.
Compound CNc1cc(-c2cccc(C(=O)NCCCCCCc3ccc4c(c3)n(C)c(=O)n4C3CCC(=O)NC3=O)c2)nn2c(C(=O)N[C@@H]3C[C@@H]3F)cnc12 (stereo partly drawn) [Example K306] has a DC50 (TYK2 [1]) of over 100 nM, a DC50 (TYK2 [2]) of over 100 nM and a DC50 (TYK2 [3]) of over 100 nM.
CNc1cc(-c2cccc(C(=O)NCCCCc3ccc4c(c3)n(C)c(=O)n4C3CCC(=O)NC3=O)c2)nn2c(C(=O)N[C@@H]3C[C@@H]3F)cnc12 (stereo partly drawn) [Example K307] was tested, and the DC50 (TYK2 [1]) was over 100 nM, the DC50 (TYK2 [2]) was over 100 nM and the DC50 (TYK2 [3]) was over 100 nM.
CNc1cc(-c2cccc(C(=O)NCCCCCCc3cccc4c3n(C)c(=O)n4C3CCC(=O)NC3=O)c2)nn2c(C(=O)N[C@@H]3C[C@@H]3F)cnc12 (stereo partly drawn) [Example K308] showed a DC50 (TYK2 [1]) of over 100 nM, a DC50 (TYK2 [2]) of over 100 nM and a DC50 (TYK2 [3]) of over 100 nM.
CNc1cc(-c2cccc(C(=O)NCCCCCCCCc3ccc4c(c3)n(C)c(=O)n4C3CCC(=O)NC3=O)c2)nn2c(C(=O)NC3C[C@@H]3F)cnc12 (stereo partly drawn) [Example K309] was tested, and the DC50 (TYK2 [1]) was over 100 nM, the DC50 (TYK2 [2]) was over 100 nM and the DC50 (TYK2 [3]) was over 100 nM.
For CNc1cc(-c2cccc(C(=O)NCCCCCCCCc3cccc4c3n(C)c(=O)n4C3CCC(=O)NC3=O)c2)nn2c(C(=O)N[C@@H]3C[C@@H]3F)cnc12 (stereo partly drawn) [Example K310], the DC50 (TYK2 [1]) was over 100 nM, the DC50 (TYK2 [2]) was over 100 nM and the DC50 (TYK2 [3]) was over 100 nM.
CNc1cc(-c2cnn(C3CCN(C(=O)NCCCCCCc4ccc5c(c4)n(C)c(=O)n5C4CCC(=O)NC4=O)CC3)c2)nn2c(C(=O)N[C@@H]3C[C@@H]3F)cnc12 (stereo partly drawn) [Example K311] showed a DC50 (TYK2 [1]) of over 100 nM, a DC50 (TYK2 [2]) of over 100 nM and a DC50 (TYK2 [3]) of over 100 nM.
For CNc1cc(-c2cnn(C3CCN(C(=O)NCCCCCCc4cccc5c4n(C)c(=O)n5C4CCC(=O)NC4=O)CC3)c2)nn2c(C(=O)N[C@@H]3C[C@@H]3F)cnc12 (stereo partly drawn) [Example K312], the DC50 (TYK2 [1]) was over 100 nM, the DC50 (TYK2 [2]) was over 100 nM and the DC50 (TYK2 [3]) was over 100 nM.
CNc1cc(-c2cnn(C3CCN(C(=O)NCCCCCCCCc4cccc5c4n(C)c(=O)n5C4CCC(=O)NC4=O)CC3)c2)nn2c(C(=O)N[C@@H]3C[C@@H]3F)cnc12 (stereo partly drawn) [Example K313] showed a DC50 (TYK2 [1]) of 1 to 10 nM, a DC50 (TYK2 [2]) of over 100 nM and a DC50 (TYK2 [3]) of over 100 nM.

Reference: patent US20250051338A1, “TYK2 DEGRADERS AND USES THEREOF” (Kymera Therapeutics, Inc., priority 2021, published 2025)
